Laboratory results taken from patent publication US11938203B2, “Oil-dispersed composition and cosmetics for lip care using the same” (AMOREPACIFIC CORPORATION, priority 2021, dated 2024).

Assay: Compatibility between water-soluble effective raw materials and oils
Type: physicochemical
From the text: Compatibility Between Water-Soluble Effective Raw Materials and Oils

[1] = ester oil and silicone-based oil that do not contain a glyceryl group or an isostearyl group
[2] = oil: Polyglyceryl-2 Triisostearate

| Compatibility with oil (in words) (diisostearyl malate oil (diester-based oil), FIG. 1) | Compatibility with oil (in words) [1] | Compatibility with oil (in words) (hydrocarbon oil-based oil or alcohol-based oil) | Compatibility with oil (oil: Diisostearyl Malate) | Compatibility with oil (oil: Diphenylsiloxy Phenyl Trimethicone) | Compatibility with oil (oil: Isononyl isononanoate) | Compatibility with oil (oil: Octyldodecyl neopentanoate) | Compatibility with oil [2] | Compatibility with oil (in words) (pentaerythrityl tetraisostearate oil, FIG. 2) | Compound |
| --- | --- | --- | --- | --- | --- | --- | --- | --- | --- |
| very good compatibility | excellent compatibility | poor compatibility | ◯ | ◯ | ◯ | ◯ | ◯ | very poor compatibility | COc1cc(/C=C/C(=O)Oc2cc(C)ccc2C(C)C)cc(OC)c1OC [Thymol trimethoxy cinnamate] |
| – | poor compatibility | – | ◯ | – | – | – | ◯ | – | Ceramides |
